# Structures can show the parent of a compound that is named as a salt.
# Key:
# SMYD3 [1] = target: T1, SMYD3 (Homo sapiens (Human), UniProt Q9H7B4); assay: SMYD3 biochemical assay (SMYD3 enzyme assay on MEKK2 protein substrate, 3H-SAM scintillation proximity assay); settings: read-out: SMYD3 Biochem IC50
# In short: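 Detection used scintillation proximity beads to capture ³H-methylated GST-MEKK2 after quench with 100 uM final cold SAM. The reaction was started by SAM/MEKK2 addition after a 30 min RT compound–enzyme preincubation. Enzyme was tag-free full-length human SMYD3 from E. coli, in buffer of 25 mM Tris-Cl pH 8.0, 1 mM TCEP, 0.005% BSG, 0.005% Tween 20.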
# SMYD3 [2] = target: T1, SMYD3; assay: SMYD3 cell assay (Trimethyl-MEKK2 In-Cell Western in 293T/17 cells transfected with MEKK2-flag and SMYD3); type: cell-based
# From the text: Trimethyl-MEKK2-in-Cell Western Assay
# MEM/Glutamax medium, Optimem Reduced Serum medium, penicillin-streptomycin, 0.05% trypsin and 1×D-PBS were purchased from Life Technologies, Grand Island, N.Y., USA. PBS-10× was purchased from Ambion, Life Technologies, Grand Island, N.Y., USA. PBS with Tween 20 (PBST (10×)) was purchased from KPL, Gaithersburg, Md., USA. Tet System FBS-approved FBS US Source was purchased from Clontech, Mountain View, Calif., USA. Odyssey blocking buffer, 800CW goat anti-rabbit IgG (H+L) antibody, 680CW Goat anti-mouse IgG (H+L) and Licor Odyssey infrared scanner were purchased from Licor Biosciences, Lincoln, Nebr., USA. Tri-methyl-Lysine [A260]-MEKK2 antibody, MEKK2 and SMYD3 plasmids were made at Epizyme. Anti-flag monoclonal mouse antibody was purchased from Sigma, St. Louis, Mo., USA. Methanol was purchased from VWR, Franklin, Mass., USA. 10% Tween 20 was purchased from KPL, Inc., Gaithersburg, Md., USA. Fugene was purchased from Promega, Madison, Wis., USA. The Biotek ELx405 was purchased from BioTek, Winooski, Vt., USA. The multidrop combi was purchased from Thermo Scientific, Waltham, Mass., USA.
# Cell Treatment, in Cell Western (ICW) for Detection of Trimethyl-Lysine-MEKK2 and MEKK2.
# Plasmids were prepared for delivery to cells by first mixing 1350 μL Opti-MEM with Fugene (81 μL) in a sterile Eppendorf and incubated for five minutes at room temperature (RT). […] Entire volume of Opti-MEM/Fugene mixture was then added to a microfuge tube containing DNA plasmid, mixed and then incubated ×15 minutes at RT. […] Medium was then removed, and cells were washed once with PBS in the flask. Trypsin 0.05% (3 mL) was added and cells incubated for three minutes. Room temperature MEM+10% Tet system FBS was added and cells were mixed gently, and counted using the Vi-cell. Cells were seeded at 100,000 cells/mL in 50 μL MEM/10% Tet FBS/Pen/Strep to a 384 well black/clear poly-D-lysine coated plate containing test agent diluted in DMSO. The final top concentration of test compound was 40 μM. […] Plates were incubated ×30 minutes at RT in low-airflow area, followed by incubation at 37° C. under 5% CO2 for 24 hours. Medium was aspirated from all wells of assay plates prior to fixation and permeabilization with ice cold (−20° C.) methanol (90 μL/well) for ten minutes. Plates were rinsed with PBS three times on BioTek ELx405. PBS was removed with a final aspiration, and Odyssey blocking buffer (50 μL/well) was added to each well and incubated for one hour at RT. Primary antibody solution was prepared (anti-trimethyl-MEKK2 at 1:600 dilution plus mouse anti-flag antibody at 1:10,000 dilution in diluent (Odyssey Blocking buffer+0.1% Tween 20)) and 20 μL per well was dispensed using the Multidrop Combi. Assay plates were then sealed with foil, and incubated overnight at 4° C. Plates were washed five times with PBS-Tween (1×) on Biotek ELx405 and blotted on paper towel to remove excess reagent.
# First, the ratio for each well was determined by:
# Each plate included fourteen control wells of DMSO only treatment (Minimum Inhibition) as well as fourteen control wells for maximum inhibition (Background). The average of the ratio values for each control type was calculated and used to determine the percent inhibition for each test well in the plate. Reference compound was serially diluted two-fold in DMSO for a total of nine test concentrations, beginning at 40 μM. Percent inhibition was calculated (below).
# Non-linear regression curves were generated to calculate the IC50 and dose-response relationship using triplicate wells per concentration of compound.
# [3] = Table 3A, average of n = 1 to n = 50
# [4] = Table 3A, average of n = 1 to n = 50, read-out: SMYD3 cell IC50
# T1 sequence (Q9H7B4 whole entry): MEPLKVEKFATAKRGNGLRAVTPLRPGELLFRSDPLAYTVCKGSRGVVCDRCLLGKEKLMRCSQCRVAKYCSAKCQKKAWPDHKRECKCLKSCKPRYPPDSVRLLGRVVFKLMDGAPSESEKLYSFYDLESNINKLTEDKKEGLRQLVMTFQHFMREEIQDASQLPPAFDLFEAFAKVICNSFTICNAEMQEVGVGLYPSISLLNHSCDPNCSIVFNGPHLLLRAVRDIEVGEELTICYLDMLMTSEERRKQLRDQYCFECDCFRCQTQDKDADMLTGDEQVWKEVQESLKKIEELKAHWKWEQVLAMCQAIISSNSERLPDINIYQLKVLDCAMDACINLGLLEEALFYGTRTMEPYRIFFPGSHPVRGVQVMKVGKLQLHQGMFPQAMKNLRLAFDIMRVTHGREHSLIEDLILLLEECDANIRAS
SMILES,IC50 (SMYD3 [1]; [3]) [nM],IC50 (SMYD3 [2]; [4]) [nM],IC50 (SMYD3 [1]) [nM],IC50 (SMYD3 [2]; read-out: SMYD3 Cell IC50) [nM]
"CC(=O)Nc1ccc(S(=O)(=O)N2CC[C@H](NC(=O)c3ccc4c(c3)CC(=O)N4)C[C@@H]2C)cc1 [compound 632, N-((2S,4S)-1-(4-acetamidophenylsulfonyl)-2-methylpiperidin-4-yl)-2-oxoindoline-5-carboxamide]",526,≥ 10000,,
"CN1CCC(CS(=O)(=O)N2[C@@H]3CC[C@H]2C[C@@H](NC(=O)c2ccc4c(c2)CC(=O)N4)C3)CC1 [compound 577, N-((1R,3r,5S)-8-(((1-methylpiperidin-4-yl)methyl)sulfonyl)-8-azabicyclo[3.2.1]octan-3-yl)-2-oxoindoline-5-carboxamide]",,481,0.67,
"O=C1Cc2cc(C(=O)N[C@H]3C[C@H]4CC[C@@H](C3)N4S(=O)(=O)C[C@@H]3CCCNC3)c(Cl)cc2N1 [compound 600, 6-chloro-2-oxo-N-((1R,3R,5S)-8-((((R)-piperidin-3-yl)methyl)sulfonyl)-8-azabicyclo[3.2.1]octan-3-yl)indoline-5-carboxamide]",4.99,728,,
"CCc1cccc(C(=O)N[C@H]2C[C@H]3CC[C@@H](C2)N3S(=O)(=O)CC2CCNCC2)c1 [compound 635, 3-ethyl-N-((1R,3r,5S)-8-((piperidin-4-ylmethyl)sulfonyl)-8-azabicyclo[3.2.1]octan-3-yl)benzamide]",620,≥ 10000,,
"CNC1CCN(S(=O)(=O)N2[C@@H]3CC[C@H]2C[C@@H](NC(=O)c2cc4c(cc2Cl)NC(=O)C4)C3)CC1 [compound 586, 6-chloro-N-((1R,3r,5S)-8-((4-(methylamino)piperidin-1-yl)sulfonyl)-8-azabicyclo[3.2.1]octan-3-yl)-2-oxoindoline-5-carboxamide]",1.89,425,,
"C[C@H]1C[C@@H](NC(=O)c2ccc3c(c2)CC(=O)N3)CCN1S(=O)(=O)N1CCC(N)CC1 [compound 580, N-((2S,4S)-1-((4-aminopiperidin-1-yl)sulfonyl)-2-methylpiperidin-4-yl)-2-oxoindoline-5-carboxamide]",0.9,1640,,
"NCCCS(=O)(=O)N1CCC(NC(=O)c2cc3c(cc2Cl)NC(=O)C3)CC1 [compound 621, N-(1-((3-aminopropyl)sulfonyl)piperidin-4-yl)-6-chloro-2-oxoindoline-5-carboxamide]",77.5,6840,,
"CN(C)C1CCN(S(=O)(=O)N2[C@@H]3CC[C@H]2C[C@@H](NC(=O)c2cc4c(cc2Cl)NC(=O)C4)C3)CC1 [compound 594, 6-chloro-N-((1R,3r,5S)-8-((4-(dimethylamino)piperidin-1-yl)sulfonyl)-8-azabicyclo[3.2.1]octan-3-yl)-2-oxoindoline-5-carboxamide]",,301,3.46,
"CC(=O)Nc1ccc(S(=O)(=O)N2CCC(NC(=O)c3cc4c(cc3Cl)NC(=O)C4)CC2)cc1 [compound 641, N-(1-((4-acetamidophenyl)sulfonyl)piperidin-4-yl)-6-chloro-2-oxoindoline-5-carboxamide]",5930,≥ 10000,,
"CCc1cc(C(=O)N[C@H]2C[C@H]3CC[C@@H](C2)N3S(=O)(=O)N2CCC(N)CC2)ns1 [Cpd. No. 610, N-[(1R,3r,5S)-8-(4-aminopiperidine-1-sulfonyl)-8-azabicyclo[3.2.1]octan-3-yl]-5-ethyl-1,2-thiazole-3-carboxamide Hydrochloride]",23.8,216,,
"CC(NC(=O)c1cc2c(cc1Cl)NC(=O)C2)C1CCN(C(=O)[C@H](C)N)CC1 (stereo partly drawn) [Cpd. No. 490, N-(1-(1-((S)-2-aminopropanoyl)piperidin-4-yl)ethyl)-6-chloro-2-oxoindoline-5-carboxamide]",,,430,> 40000
"N[C@H]1CC[C@@H](S(=O)(=O)N2[C@@H]3CC[C@H]2C[C@@H](NC(=O)c2ccc4c(c2)CC(=O)N4)C3)CC1 [compound 591, N-((1R,3R,5S)-8-(((1s,4S)-4-aminocyclohexyl)sulfonyl)-8-azabicyclo[3.2.1]octan-3-yl)-2-oxoindoline-5-carboxamide]",,2310,2.33,
"CN(C)C1CCN(S(=O)(=O)N2[C@@H]3CC[C@H]2C[C@@H](NC(=O)c2ccc4c(c2)CC(=O)N4)C3)CC1 [compound 593, N-((1R,3r,5S)-8-((4-(dimethylamino)piperidin-1-yl)sulfonyl)-8-azabicyclo[3.2.1]octan-3-yl)-2-oxoindoline-5-carboxamide]",2.89,500,,
"NC1CCN(S(=O)(=O)N2[C@@H]3CC[C@H]2C[C@@H](NC(=O)c2ccc4c(c2)CC(=O)N4)C3)CC1 [compound 578, N-((1R,3r,5S)-8-((4-aminopiperidin-1-yl)sulfonyl)-8-azabicyclo[3.2.1]octan-3-yl)-2-oxoindoline-5-carboxamide]",,854,0.68,
"O=C1Cc2cc(C(=O)N[C@H]3C[C@H]4CC[C@@H](C3)N4S(=O)(=O)CC3CCN(CCCO)CC3)c(Cl)cc2N1 [compound 585, 6-chloro-N-((1R,3r,5S)-8-(((1-(3-hydroxypropyl)piperidin-4-yl)methyl)sulfonyl)-8-azabicyclo[3.2.1]octan-3-yl)-2-oxoindoline-5-carboxamide]",1.73,764,,
"C[C@@H]1CN(S(=O)(=O)N2CCC(N)CC2)CC[C@@H]1NC(=O)c1cc2c(cc1Cl)NC(=O)C2 [compound 634, N-((3R,4S)-1-((4-aminopiperidin-1-yl)sulfonyl)-3-methylpiperidin-4-yl)-6-chloro-2-oxoindoline-5-carboxamide]",529,972,,
"O=C1Cc2cc(C(=O)N[C@H]3C[C@H]4CC[C@@H](C3)N4S(=O)(=O)CCN3CCCC3)c(Cl)cc2N1 [compound 614, 6-chloro-2-oxo-N-((1R,3r,5S)-8-((2-(pyrrolidin-1-yl)ethyl)sulfonyl)-8-azabicyclo[3.2.1]octan-3-yl)indoline-5-carboxamide]",46,380,,
"CC(C)(N)c1ccc(S(=O)(=O)N2[C@@H]3CC[C@H]2C[C@@H](NC(=O)c2ccc4c(c2)CC(=O)N4)C3)cc1 [compound 612, N-((1R,3r,5S)-8-((4-(2-aminopropan-2-yl)phenyl)sulfonyl)-8-azabicyclo[3.2.1]octan-3-yl)-2-oxoindoline-5-carboxamide]",30.7,2530,,
"O=C1Cc2cc(C(=O)N[C@H]3C[C@H]4CC[C@@H](C3)N4S(=O)(=O)CC3CCN(CCCC(F)(F)F)CC3)c(Cl)cc2N1 [Cpd. No. 595, 6-chloro-2-oxo-N-((1S,3r,5R)-8-((1-(4,4,4-trifluorobutyl)piperidin-4-yl)methylsulfonyl)-8-aza-bicyclo[3.2.1]octan-3-yl)indoline-5-carboxamide]",3.54,36.1,,
"NC1CCN(S(=O)(=O)N2[C@@H]3CC[C@H]2C[C@@H](NC(=O)c2cc(C4CC4)[nH]n2)C3)CC1 [compound 633, N-((1R,3r,5S)-8-((4-aminopiperidin-1-yl)sulfonyl)-8-azabicyclo[3.2.1]octan-3-yl)-5-cyclopropyl-1H-pyrazole-3-carboxamide]",529,≥ 10000,,
